The source of these data is PubChem BioAssay (NCI).

Each structure is given as a SMILES string.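 Test compounds were applied to cells in 96-well plates for 48 hours at 5 doses. GI50 marks 50% less growth. The concentration for full growth arrest is given as TGI.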 Some results are limits rather than exact numbers.

Some test systems named below: UO-31 renal; OVCAR-4 ovarian; KM12 colon; RXF 393 renal; A498 renal; NCI-H23 lung; SK-MEL-2 melanoma; A549 NSCLC; IGROV1 ovarian; SK-OV-3 ovarian.
Holding throughout (experiment): growth of human tumour cells (NCI), 48 h

In the case of `CC1CCC(C#N)(NOC2=NCCN2)CC1` (stereo not drawn), the GI50 in the test on UO-31 renal is 11.6 µM; in the test on OVCAR-4 ovarian it was 47.2 µM; with KM12 colon it was 42.6 µM; with RXF 393 renal, over 100 µM; with A498 renal, 40.5 µM; with NCI-H23 lung, 34 µM. For the same compound, the GI50 was over 100 µM in the test on SK-MEL-2 melanoma, 39.4 µM in the test with A549 NSCLC and 41.7 µM in the test with IGROV1 ovarian. The TGI in the test with UO-31 renal, in the test with OVCAR-4 ovarian, in the test on KM12 colon, in the test with RXF 393 renal, with A498 renal and in the test on NCI-H23 lung was over 100 µM in each case. Moreover, the TGI in the test with SK-MEL-2 melanoma, in the test with A549 NSCLC and in the test on IGROV1 ovarian was over 100 µM each time.
With `COc1cc(C(=C2SCCS2)c2nccc3cc(OC)c(OC)cc23)c([N+](=O)[O-])cc1OC`, the TGI in the test with UO-31 renal, with KM12 colon, with RXF 393 renal, with SK-OV-3 ovarian, in the test with A498 renal and in the test with NCI-H23 lung was over 100 µM each time. For the same compound, the TGI in the test with SK-MEL-2 melanoma, with A549 NSCLC and in the test with IGROV1 ovarian was over 100 µM in each case.
As to `O=c1cc(-c2ccc[nH]2)[nH]c2cc3c(cc12)OCO3`, the TGI is over 100 µM in the test with UO-31 renal; 56 µM in the test on OVCAR-4 ovarian; 47 µM with RXF 393 renal; 74.3 µM in the test with A498 renal; over 100 µM with SK-MEL-2 melanoma; over 100 µM in the test on A549 NSCLC. In the test with IGROV1 ovarian, this compound displayed a TGI of over 100 µM. Besides, the GI50 in the test on RXF 393 renal was 15.9 µM.
As to `COc1ccc(Cn2cc3c(c2-c2ccccc2)CCc2cncnc2-3)cc1`, the GI50 with UO-31 renal is 10.3 µM; in the test on OVCAR-4 ovarian, 10.2 µM; in the test with KM12 colon, 3.57 µM; with RXF 393 renal it was 3.56 µM; with SK-OV-3 ovarian, 9.04 µM; in the test on A498 renal it was 4.87 µM. Also, the GI50 in the test on NCI-H23 lung is 10.6 µM; in the test with A549 NSCLC it was 3.55 µM; with IGROV1 ovarian, 5.8 µM. Besides, the TGI in the test with UO-31 renal worked out at 24.2 µM; with OVCAR-4 ovarian it was 33.7 µM; with KM12 colon, 13.5 µM; in the test on RXF 393 renal, 9.82 µM; in the test with SK-OV-3 ovarian it was 31.2 µM; with A498 renal it was 17.4 µM. Besides, the TGI turned out to be 39.3 µM with NCI-H23 lung, 14.1 µM in the test with A549 NSCLC and 23.9 µM in the test with IGROV1 ovarian.
Turning to `O=C(O)CCc1nc(-c2ccccc2)c(-c2ccccc2)o1`, the TGI with OVCAR-4 ovarian, in the test with KM12 colon, in the test on RXF 393 renal, with SK-OV-3 ovarian, with A498 renal and in the test with NCI-H23 lung was over 100 µM in each case. In addition, the TGI in the test with SK-MEL-2 melanoma, in the test with A549 NSCLC and in the test on IGROV1 ovarian was over 100 µM each time.
In the case of `COC(=O)C1=C2CO[C@@H]3C[C@H]4C(C)(C)CCC[C@]4(C)C(=CC1)[C@]23C`, the GI50 was 60.7 µM in the test with UO-31 renal; 62.1 µM in the test on OVCAR-4 ovarian; 21.4 µM in the test with KM12 colon; 50.9 µM in the test on RXF 393 renal; 67.5 µM in the test with A498 renal; 29.8 µM in the test with NCI-H23 lung. Moreover, the results for the GI50 in the test on A549 NSCLC and with IGROV1 ovarian were 36.8 µM and 60.7 µM, respectively. The TGI in the test with UO-31 renal is over 100 µM; in the test with OVCAR-4 ovarian, over 100 µM; in the test on KM12 colon it was 74.1 µM; with RXF 393 renal, over 100 µM; in the test on A498 renal, over 100 µM; with NCI-H23 lung, over 100 µM. The TGI in the test with A549 NSCLC and in the test with IGROV1 ovarian was over 100 µM in each case.
In the case of `COC(=O)c1cccc2c1Oc1ccccc1S2`, the TGI with UO-31 renal is over 100 µM; in the test with OVCAR-4 ovarian it was over 100 µM; in the test on KM12 colon, 36.4 µM; in the test on RXF 393 renal, over 100 µM; in the test on SK-OV-3 ovarian it was over 100 µM; in the test with A498 renal it was over 100 µM. In addition, the TGI with SK-MEL-2 melanoma, with A549 NSCLC and in the test on IGROV1 ovarian was over 100 µM throughout.
Consider `NCCCn1c2c(c3ccc([N+](=O)[O-])cc3c1=O)C(=O)c1cc(Cl)ccc1-2`, for which the GI50 in the test on UO-31 renal was under 0.01 µM; in the test with KM12 colon it was under 0.0283 µM; in the test on RXF 393 renal, under 0.01 µM; in the test with SK-OV-3 ovarian it was under 0.01 µM; in the test on A498 renal, 0.0274 µM; in the test with NCI-H23 lung, under 0.01 µM. The GI50 was 0.113 µM in the test on SK-MEL-2 melanoma and under 0.01 µM in the test with A549 NSCLC. For the same compound, the TGI stood at 0.122 µM with UO-31 renal; 0.174 µM with KM12 colon; 0.118 µM in the test with RXF 393 renal; 0.197 µM with SK-OV-3 ovarian; 0.596 µM in the test on A498 renal; 0.055 µM in the test with NCI-H23 lung. The figures for the TGI with SK-MEL-2 melanoma and in the test on A549 NSCLC were 0.275 µM and 0.116 µM, respectively.
As for `CC1(C)CC(O)CCCCCCOc2c(CN)cccc2NC(=O)c2nc(cnc2N)-c2ccc(cc2)S1(=O)=O` (stereo not drawn), the GI50 in the test with UO-31 renal was 0.648 µM; with OVCAR-4 ovarian, 1.3 µM; in the test with KM12 colon, 0.843 µM; with RXF 393 renal, under 0.01 µM; in the test on SK-OV-3 ovarian, 2.22 µM; with A498 renal, 0.0151 µM. The GI50 in the test on SK-MEL-2 melanoma is 1.36 µM; in the test with IGROV1 ovarian it was 0.148 µM. The TGI in the test with UO-31 renal is 2.25 µM; in the test on OVCAR-4 ovarian, 3.43 µM; in the test with KM12 colon, 2.59 µM; in the test on RXF 393 renal it was 1.54 µM; with SK-OV-3 ovarian, 15.8 µM; in the test on A498 renal, 0.84 µM. Further, the values for the TGI in the test on SK-MEL-2 melanoma and with IGROV1 ovarian were 3.15 µM and 1.48 µM, respectively.
Regarding `C/C(CC(=O)Nc1ccc(NC(=O)/C(C)=N/NS(=O)(=O)c2ccc(C)cc2)cc1)=N\NS(=O)(=O)c1ccc(C)cc1`, the TGI with UO-31 renal, in the test with KM12 colon, with RXF 393 renal, in the test with SK-OV-3 ovarian, with A498 renal and in the test with NCI-H23 lung was over 100 µM in each case. For the same compound, the TGI in the test on SK-MEL-2 melanoma, in the test with A549 NSCLC and in the test on IGROV1 ovarian was over 100 µM each time.
For `N#CNc1nc(C(=O)Nc2ccc(Cl)cc2)cc(-c2ccccc2)n1`, the TGI in the test on UO-31 renal, in the test with OVCAR-4 ovarian, with KM12 colon, in the test with RXF 393 renal, in the test on A498 renal and with NCI-H23 lung was over 100 µM each time. For the same compound, the TGI with SK-MEL-2 melanoma, in the test on A549 NSCLC and with IGROV1 ovarian was over 100 µM throughout.
For the compound `CN(C)CCC(=O)NCc1c2nc3ccccc3nc2n2ccccc12`, the GI50 with UO-31 renal is 20.7 µM; with KM12 colon, 26 µM; in the test on RXF 393 renal it was 54.8 µM; in the test on SK-OV-3 ovarian, over 100 µM; in the test on A498 renal it was 22 µM; in the test with NCI-H23 lung, 65.6 µM. For the same compound, the GI50 with SK-MEL-2 melanoma was 48.1 µM; in the test on A549 NSCLC it was over 100 µM; in the test on IGROV1 ovarian, 0.338 µM. Besides, the TGI is over 100 µM in the test with UO-31 renal; over 100 µM in the test with KM12 colon; over 100 µM in the test with RXF 393 renal; over 100 µM in the test with SK-OV-3 ovarian; 88.1 µM with A498 renal; over 100 µM with NCI-H23 lung. Also, the results for the TGI with SK-MEL-2 melanoma, with A549 NSCLC and in the test with IGROV1 ovarian were over 100 µM, over 100 µM and 28.4 µM, respectively.
In the case of `Cc1cc(S(=O)(=O)Nc2nc3ccsc3c(=O)n2Cc2ccccc2)c(S)cc1Cl`, the GI50 in the test with UO-31 renal is 86 µM; in the test with OVCAR-4 ovarian, 44 µM; with KM12 colon, 20.1 µM; with RXF 393 renal, 44 µM; in the test on A498 renal it was 14.2 µM; with NCI-H23 lung, 24.9 µM. The GI50 in the test with A549 NSCLC is 34.5 µM; in the test on IGROV1 ovarian it was 43.1 µM. Moreover, the TGI in the test with UO-31 renal was over 100 µM; in the test with OVCAR-4 ovarian, over 100 µM; with KM12 colon it was 48.2 µM; in the test on RXF 393 renal, over 100 µM; with A498 renal it was 49.3 µM; in the test on NCI-H23 lung it was 57.5 µM. Besides, the TGI in the test with A549 NSCLC and with IGROV1 ovarian was over 100 µM in each case.
In the case of `N=C(N)Cn1cnc2ccccc21`, the TGI in the test with UO-31 renal, in the test with KM12 colon, with RXF 393 renal, in the test on SK-OV-3 ovarian, with A498 renal and with NCI-H23 lung was over 100 µM each time. Moreover, the TGI with SK-MEL-2 melanoma, with A549 NSCLC and in the test with IGROV1 ovarian was over 100 µM each time.
In the case of `C=CC1=C(C)C(Cc2[nH]c(/C=c3\[nH]/c(=C/C4=NC(=O)C(C)/C4=C\C)c(C)c3CCC(=O)O)c(CCC(=O)OC)c2C)NC1=O` (stereo not drawn), the GI50 is 18.9 µM in the test on UO-31 renal; 21 µM in the test on KM12 colon; 21.4 µM in the test on RXF 393 renal; 27.9 µM with SK-OV-3 ovarian; over 100 µM with A498 renal; 28.3 µM with NCI-H23 lung. Further, the GI50 was 20.1 µM in the test with SK-MEL-2 melanoma, 40.2 µM in the test on A549 NSCLC and 18.8 µM with IGROV1 ovarian. Further, the TGI in the test on UO-31 renal is 36.1 µM; in the test with KM12 colon, 40.1 µM; with RXF 393 renal, 44 µM; in the test with SK-OV-3 ovarian, 78.2 µM; with A498 renal, over 100 µM; in the test on NCI-H23 lung, 53.6 µM. Further, the TGI is 39.4 µM with SK-MEL-2 melanoma, over 100 µM with A549 NSCLC and 42.4 µM in the test on IGROV1 ovarian.
